Consider 23 compounds from US6855713B2, “Benzimidazole derivatives, a process for their manufacture and use as a medicine” (Boehringer Ingelheim Pharma KG, priority 2001, dated 2005).

The assay concerns the target T1, rh beta trypsin (Homo sapiens, UniProt P20231).
T1 construct: purchased Promega
The experiment in a line: Trypsin (tryptase) inhibition, cleavage of N-p-Gly-Pro-Lys-para-nitroaniline measured at 405 nm. The format is biochemical. As for the experimental part: The compounds of the invention are notable for their effective trypsin-inhibiting property. The said capacity to inhibit trypsin activity was determined in accordance with the following trial descriptions.
The determinations are carried out in tris-HCl buffer (100 mM), that also contained calcium (5 mM) and heparin ([…]), at a pH of 7.4. As the standard, rh beta trypsin is used, this is commercially obtainable, for example, from Promega. A suitable substrate is N-p-Gly-Pro-Lys-para-nitroaniline in a concentration of 0.6 mM. The substrate is digested with trypsin, whereby p-nitro-aniline is obtained that can be measured at 405 nm. Normally, an incubation period of 5 minutes and an incubation temperature of 37° C. is chosen. For the enzyme activity, 0.91 U/ml are used. The determination is carriedout in an auto-analyser (Cobas Bio) from the firm Hoffmann LaRoche. The potential inhibitor substances are used in the screening procedure in concentrations of 10 μM, and the inhibition of the trypsin is given in percentages. At an inhibition in excess of 70%, the IC50 is determined (the concentration at which 50% of the enzyme activity is inhibited). After a 5-minute pre-incubation of the potential inhibiting substance, the substrate is added for the start of the reaction, whereby the production of p-nitro-aniline is taken, after 5 minutes, after testing the linearity, as a measure of the enzyme activity.

Where [1] appears, read: in vitro, tris-HCl buffer pH 7.4 with calcium and heparin, substrate 0.6 mM, 5 minutes, 37° C., read-out: Trypsin-inhibiting property.
Where [2] appears, read: in vitro tests on the pro-drugs of formula IIA, read-out: IC50.

Each structure is given as a SMILES string. Read-outs that look alike come from different tables or passages of the source.

T1 sequence (P20231 31-275): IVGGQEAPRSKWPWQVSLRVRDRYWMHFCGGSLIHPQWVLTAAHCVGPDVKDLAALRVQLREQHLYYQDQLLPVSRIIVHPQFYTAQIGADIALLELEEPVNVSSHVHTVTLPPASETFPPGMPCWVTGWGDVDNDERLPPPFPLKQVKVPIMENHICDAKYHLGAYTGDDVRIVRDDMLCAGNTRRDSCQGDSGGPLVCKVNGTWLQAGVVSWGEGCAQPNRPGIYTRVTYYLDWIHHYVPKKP

Turning to `CN(C(=O)c1ccccc1)C1CCN(C(=O)c2ccc3c(c2)nc(CCc2ccc(C(=N)N)cc2)n3C)CC1` [Example 53, 2-[2-(4-Amidinophenyl)-ethyl]-1-methyl-benzimidazole-5-yl-carbooxylic acid-[4-(N-methyl)benzamidopiperidinyl]-amide], the IC50 under setting [1] was in the range of 1 to 20 nM.
Still for that read-out and setting: with `CN(C(=O)Nc1cccc(Cl)c1Cl)C1CCN(C(=O)c2ccc3c(c2)nc(CCc2ccc(C(=N)N)cc2)n3C)CC1` [Example 55, 2-[2-(4-Amidinophenyl)-ethyl]-1-methyl-benzimidazole-5-yl-carboxylic acid-{4-[3-(2,3-dichloro)-phenyl-1-methyl-ureido]piperidinyl)-amide] the figure was 1 to 20 nM.
Still for that read-out and setting: with `CC(=O)c1cccc(NC(=O)NC2CCN(C(=O)c3ccc4c(c3)nc(CCc3ccc(C(=N)N)cc3)n4C)CC2)c1` [Example 56, 2-[2-(4-Amidinophenyl)-ethyl]-1-methyl-benzimidazole-5-yl-carboxylic acid-{4-[3-(3-acetyl)-phenylureido]piperidinyl}-amide] the figure was 1 to 20 nM; with `COC(=O)c1cccc(NC(=O)NC2CCN(C(=O)c3ccc4c(c3)nc(CCc3ccc(C(=N)N)cc3)n4C)CC2)c1` [Example 57, 2-[2-(4-Amidinophenyl)-ethyl]-1-methyl-benzimidazole-5-yl-carboxylic acid-{4-[3-(3-methoxycarbonyl)phenylureido]piperidinyl}-amide], 1 to 20 nM; with `CSc1cccc(NC(=O)NC2CCN(C(=O)c3ccc4c(c3)nc(CCc3ccc(C(=N)N)cc3)n4C)CC2)c1` [Example 58, 2-[2-(4-Amidinophenyl)-ethyl]-1-methyl-benzimidazole-5-yl-carboxylic acid-{4-[3-(3-methylsulfanyl)phenylureido]piperidinyl}-amide], 0.1 to 1 nM.
Take `Cn1c(CCc2ccc(C(=N)N)cc2)nc2cc(C(=O)N3CCC(NC(=O)Nc4cccc(Cl)c4)CC3)ccc21` [Example 60, 2-[2-(4-Amidinophenyl)-ethyl]-1-methyl-benzimidazole-5-yl-carboxylic acid-{4-[3-(3-chloro)-phenylureido]piperidinyl}-amide]: under setting [1], the IC50 lay within 0.1 to 1 nM.
Take `COC(=O)c1cccc(NC(=O)N(C)C2CCN(C(=O)c3ccc4c(c3)nc(CCc3ccc(C(=N)N)cc3)n4C)CC2)c1` [Example 61, 2-[2-(4-Amidinophenyl)-ethyl]-1-methyl-benzimidazole-5-yl-carboxylic acid-{4-[3-(3-methoxycarbonyl)-phenyl-1-methyl-ureido]piperidinyl)-amide]: under setting [1], the IC50 was 1 to 20 nM.
The same measure, in the same setting: next, `Cn1c(CCc2ccc(C(=N)N)cc2)nc2cc(C(=O)N3CCC(NC(=O)Nc4cccc(C(=O)O)c4)CC3)ccc21` [Example 62, [2-(4-Amidinophenyl)-ethyl]-1-methyl-benzimidazole-5-yl-carboxylic acid-{4-[3-(3-carboxyphenyl)-ureido]-piperidinyl}-amide]: 1 to 20 nM.
On the same count and under the same terms, next, `Cn1c(CCc2ccc(C(=N)N)cc2)nc2cc(C(=O)N3CCC(NC(=O)c4cc(Cl)ccc4Cl)CC3)ccc21` [Example 64]: 0.1 to 1 nM; `Cn1c(CCc2ccc(C(=N)N)cc2)nc2cc(C(=O)N3CCC(Nc4cccc(Cl)c4Cl)CC3)ccc21` [Example 65]: 1 to 20 nM.
In the case of `Cn1c(CCc2ccc(C(=N)N)cc2)nc2cc(C(=O)N3CCC(NC(=O)c4cccc(Cl)c4Cl)CC3)ccc21` [Example 67], under setting [1], the IC50 fell in the range of 0.1 to 1 nM.
With `CN(C1CCN(C(=O)c2ccc3c(c2)nc(CCc2ccc(C(=N)N)cc2)n3C)CC1)S(=O)(=O)/C=C/c1ccccc1` [Example 166], the IC50 under setting [1] was 1 to 20 nM.
Regarding `Cn1c(CCc2ccc(C(=N)N)cc2)nc2cc(C(=O)N3CCC(NS(=O)(=O)/C=C/c4ccccc4)CC3)ccc21` [Example 167], under setting [1], the IC50 lay in the range of 1 to 20 nM.
Take `CCCCS(=O)(=O)N(C)C1CCN(C(=O)c2ccc3c(c2)nc(CCc2ccc(C(=N)N)cc2)n3C)CC1` [Example 168]: the IC50 under setting [1] was 1 to 20 nM.
As for `CN(C1CCN(C(=O)c2ccc3c(c2)nc(CCc2ccc(C(=N)N)cc2)n3C)CC1)S(=O)(=O)c1cccc2ccccc12` [Example 169], under setting [1], the IC50 fell in the range of 1 to 20 nM.
Turning to `Cc1c(Cl)cccc1S(=O)(=O)N(C)C1CCN(C(=O)c2ccc3c(c2)nc(CCc2ccc(C(=N)N)cc2)n3C)CC1` [Example 170], the IC50 under setting [1] fell in the range of 1 to 20 nM.
On to `CN(C1CCN(C(=O)c2ccc3c(c2)nc(CCc2ccc(C(=N)N)cc2)n3C)CC1)S(=O)(=O)c1cccc(Cl)c1Cl` [Example 171], for which the IC50 under setting [1] fell in the range of 20 to 50 nM.
For `CCCCS(=O)(=O)NC1CCN(C(=O)c2ccc3c(c2)nc(CCc2ccc(C(=N)N)cc2)n3C)CC1` [Example 173], the IC50 under setting [1] was in the range of 20 to 50 nM.
`Cn1c(CCc2ccc(C(=N)N)cc2)nc2cc(C(=O)N3CCC(NC(=O)Cc4cccc5ccccc45)CC3)ccc21` [Example 189]: the IC50 under setting [1] lay in the range of 1 to 20 nM.
For the compound `N=C(N)c1ccc(CCc2nc3cc(C(=O)N4CCC(NC(=O)c5ccccc5)CC4)ccc3n2C2CC2)cc1` [Example 196], under setting [1], the IC50 lay in the range of 20 to 50 nM.
Consider `CCOC(=O)N=C(N)c1ccc(CCc2nc3cc(C(=O)N4CCC(NC(=O)c5ccccc5)CC4)ccc3n2C)cc1` [IIA6], for which the IC50 under setting [2] amounted to 2490 nM.
Regarding `CCCCCCCCOC(=O)N=C(N)c1ccc(CCc2nc3cc(C(=O)N4CCC(NC(=O)c5ccccc5)CC4)ccc3n2C)cc1` [IIA10], the IC50 under setting [2] is 7910 nM.
Still for that read-out and setting: with `Cn1c(CCc2ccc(C(N)=NC(=O)c3ccccc3)cc2)nc2cc(C(=O)N3CCC(NC(=O)c4ccccc4)CC3)ccc21` [IIA17] the figure was 360 nM.
